Like-named read-outs stand apart in the source and are kept apart here.
Test system: GM-HSPC and their progeny
Conditions: for Enrichment of frequency of CD45+/GFP+ cells in spleen and bone marrow: necropsy 11 weeks after transplantation
Procedure: All animals except control mice received 20 mg/kg O^6BG (Sigma-Aldrich, St. Louis, Mo.) followed by 5 mg/kg BCNU (Sigma-Aldrich, St. Louis, Mo.) mouse 1.5 hour later via IP injection. Drug doses were administered at either at the 7th and 8th or 7th, 8th, and 9th weeks post-transplantation. O^6BG was prepared in 35% PEG-400 (Sigma-Aldrich, St. Louis, Mo.) and 60% injectable saline.
Lentiviral vector was produced by calcium phosphate precipitation in HEK293T cells as previously described by Li M J et al. (2005). CD34+ cells were pre-stimulated overnight in SFT6. Lentiviral transduction was conducted at 1×10^6 cells/mL on Retronectin™ (Takara, Otsu-Shiga Japan)-coated non-tissue culture T-75 flask for 24 h in the presence of […] rapamycin (Sigma-Aldrich, St. Louis, Mo.). Lentivirus and rapamycin were removed and cells were washed once before being resuspended for transplantation in 0.9% NaCl saline solution with Fc/IL-7 as described above.
Mice were necropsied at 16 or 25 weeks post transplantation for analysis of engraftment. Single cell suspensions of bone marrow (femurs) and spleen were prepared by mechanical dissociation and red cells lysed using ACK lysis Buffer (Sigma-Aldrich, St. Louis, Mo.). All cell suspensions were pre-treated with human immunoglobulin (GammaGard, Baxter Healthcare Corp. Deerfield, Ill.) for 30 minutes to block nonspecific antibody staining. Cell suspensions were stained with a human pan-leukocyte antibody to CD45-PC5 (BioLegendR, San Diego, Calif.), and lineage specific antihuman, CD3-ECD, CD4-APC, CD14-APC-Alexa-750, CD19-PE (Invitrogen, Carlsbad, Calif.), and CD8β-PC5 (Beckman Coulter, Brea, Calif.), for 20 minutes and washed 2 times with 1 mL of PBS containing 0.1% BSA (Sigma-Aldrich, St Louis, Mo.). BM cells were stained with antibodies to human CD45-PC5, CD34-PC7, CD45-ECD (Beckman Coulter, Brea, Calif.), CD33-PC5 (BD Biosciences, San Diego, Calif.), CD19-PE, and CD14-APC-Alexa750 (Invitrogen, Carlsbad, Calif.) for 20 minutes and washed 2 times with 1 mL of PBS containing 0.1% BSA. To establish analytical gates and background staining, bone marrow and spleen samples from 2-3 mice that received no human cells mice were stained with the same antibody panel. Samples were analyzed using a Gallios flow cytometer (Beckman Coulter, Hialeah, Fla.) and data analyzed with FCS Express software (De Novo Software, Los Angeles, Calif.).
Lentiviral vectors expressing unique combinations of small anti-HIV RNAs expressed from a naturally occurring micro RNA cluster (MCM-7) are known. See Chung J, et al. Endogenous MCMI microRNA cluster as a novel platform to multiplex small interfering and nucleolar RNAs for combinational HIV-1 gene therapy. Human gene therapy. 2012; 23:1200-1208. […] CD34+ HSPC were transduced with this vector and used to transplant NSG mice as described in materials and methods. Animals were treated with O^6BG and BCNU at weeks 7 and 8 (2× treatment) or weeks 7, 8 and 9 (3× treatment) following transplantation. Two weeks later (11 weeks following transplantation) animals were necropsied and the level of engraftment of the spleen and bone marrow were determined.

[1] = second experiment, different donor, 7 weeks recovery with weekly Fc/IL-7

## O^6-benzylguanine; bis-chloronitrosourea [O^6BG/BCNU]
2-3 rounds of treatment
  Enrichment in GM progeny in bone marrow and spleen: 4-8 fold
2× and 3× treated animals, p<0.0001
  Engraftment of spleen and bone marrow with human cells relative to untreated control: reduced
2× treatment (weeks 7 and 8)
  Enrichment of frequency of CD45+/GFP+ cells in spleen and bone marrow: 10 fold
3× treatment (weeks 7, 8 and 9)
  Enrichment of frequency of CD45+/GFP+ cells in spleen and bone marrow: 15 fold
[1]
  CD45+ cells in bone marrow and spleen: depletion
  Enrichment of CD3+/CD4+/GFP+ T-cells: no significant enrichment
  Frequency of CD45+/GFP+ human cells and CD14+/CD4+/GFP+ monocytes: concomitant increase
Three treatments
  Increase of CD4+/CD14+/GFP+ monocytes in the spleens: 3 fold
Treatment performed three times
  Increase of average frequency of CD3+/CD4+ T-cells in the spleen: 3 fold

From patent publication US20150342165A1, “HUMANIZED MOUSE AND METHODS OF USING THE SAME” (City of Hope, priority 2014, published 2015)
